Measurements published in PMC7142633, “Impact of B-Ring Substitution and Acylation with Hydroxy Cinnamic Acids on the Inhibition of Porcine α-Amylase by Anthocyanin-3-Glycosides” (Foods, 2020).
Where two headings read alike, the source gives them in different places. Marks after values point to notes of the source that are not given here.

Experiments:
[1] = target: T1, α-amylase from porcine pancreas (Sus scrofa, UniProt P00690); assay: α-amylase enzyme activity assay, GalG2CNP conversion, UV/Vis detection of CNP at 405 nm; format: biochemical; conditions: for IC50: read-out: IC50 (Cheng−Prussoff, Equation (9)); for Kmapp / vmaxapp: Michaelis Menten fit
T1 construct: A saline suspension of α-amylase from porcine pancreas; purchased Sigma Aldrich (Steinheim, Germany) Lot #SLBN9170V (catalogue number not given); host or cells: porcine pancreas (tissue-derived)
T1 sequence (P00690 16-511): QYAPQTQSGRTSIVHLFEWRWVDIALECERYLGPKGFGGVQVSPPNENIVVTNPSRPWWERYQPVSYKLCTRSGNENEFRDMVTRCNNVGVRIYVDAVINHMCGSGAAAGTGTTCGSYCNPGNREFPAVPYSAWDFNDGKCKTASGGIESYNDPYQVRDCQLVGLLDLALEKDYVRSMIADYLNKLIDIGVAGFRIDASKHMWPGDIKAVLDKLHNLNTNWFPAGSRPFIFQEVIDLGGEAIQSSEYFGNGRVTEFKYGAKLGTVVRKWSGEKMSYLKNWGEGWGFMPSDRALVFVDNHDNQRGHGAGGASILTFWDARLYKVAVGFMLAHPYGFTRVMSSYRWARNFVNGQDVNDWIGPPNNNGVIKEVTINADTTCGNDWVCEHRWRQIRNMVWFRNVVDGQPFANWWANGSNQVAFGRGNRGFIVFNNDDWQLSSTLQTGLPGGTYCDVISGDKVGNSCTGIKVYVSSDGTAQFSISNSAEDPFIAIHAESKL
Experimental: The enzyme activity assay, […], was established by Homoki and co-workers and already used by the authors to evaluate the inhibitory strength of different phenolic structures. To enable the evaluation of the result obtained in the present study compared to the non-anthocyanin phenolics investigated previously, the assay conditions were identical. In short, to 12 different GalG2CNP concentrations ([S] = 0−2000 µM) in MES^+ buffer, inhibitor [I] and 50 µL enzyme solution (c = 1.51 units/~100 pM, on the basis of supplier information) were mixed in a microtiter plate (Greiner BioOne, Frickenhausen, Germany; transparent, F-bottom). For blanks, the enzyme solution was substituted with MES^+ buffer. The final volume per well was 250 µL. To quantify the reaction product, a linear calibration with eight different CNP concentrations in the range of 0−35 µM was performed for each plate. Dilutions of the anthocyanin stock solutions (0.1% HCl) were equilibrated at pH 6.1 for one hour. Final inhibitor concentrations were limited due to its strong absorption at 405 nm to 12.5, 25, and 50 µM. For each anthocyanin structure, the assay was conducted on two to three different days with freshly prepared stocks of substrate, enzyme, and inhibitor.
In addition to the Michaelis Menten constant (Km) and the maximal conversion rate (vmax) values (Table S1), inhibition constants (Kic, Kiu) were calculated by fitting the data by two approaches: (i) According to the mixed inhibition equation (Equation (4)) or competitive inhibition equation (Equation (5)), applying an optimal global fit containing data from all inhibitor concentrations including the control ([I] = 0 µM); and (ii) by an independent fit according to the Michaelis Menten equation (Equation (6)), providing the apparent values Km^app and Vmax^app (Table S2) for each inhibitor concentration, which were then used to calculate the inhibition constants (Equations (7) and (8)). (4) v0= vmax/Km/[S] · (1+[I]/Kic)+(1+[I]/Kiu), (5) v0=vmax/Km/[S] · ( 1+[I]/Kic)+1, (6) v0=vmax · [S]/Km+[S], (7) Kic=vmax^app/Km^app · [I]/vmax/Km−vmax^app/Km^app, (8) Kiu=vmax^app · [I]/vmax− vmax^app.
The IC50 values of the different anthocyanins were derived from the inhibition constants for different substrate concentrations by the Cheng−Prusoff equation (Equation (9)). (9) IC50=(Km+[S])/Km/Kic+[S]/Kiu.
• KM: Michaelis Menten constant (µM) • vmax: Maximal conversion rate of the uninhibited reaction (µM/min) • v0: Observed conversion rate at given substrate and inhibitor concentration (µM/min) • [S]: Substrate concentration • [I]: Inhibitor concentration • Kic: Inhibitor constant, reflecting the competitive inhibition in the equation (µM) • Kiu: Inhibitor constant, reflecting the uncompetitive inhibition in the equation (µM) • vmax^app: Calculated maximal conversion rate, when the Michaelis Menten equation is used on an inhibited curve (µM/min) • Km^app: Calculated Michaelis Menten constant, when the Michaelis Menten equation is used on an inhibited curve (µM) • IC50: Half maximal inhibitory concentration (inhibitor concentration needed to achieve 50% inhibition; it is dependent on the substrate concentration) (µM)
For data analyses and calculations, Origin 2018b (OriginLab, software extension Enzyme Kinetics) was used. The Levenberg−Marquardt algorithm procedure was chosen for iteration. All assays were performed in two independent replicates at different dates. Values are expressed in arithmetic means ± average deviation (AD). The statistical significance and differences between groups were analyzed by one-way analysis of variance (ANOVA), followed by Tukey’s test. Differences were considered significant when p < 0.05. Data were processed using Microsoft Excel® (2010).

[2] = target: human salivary α-amylase; parameters: method as in PMID 26471548; conditions: cited from earlier work
[3] = target: porcine pancreatic α-amylase; parameters: method as in doi:10.1016/j.jff.2015.11.042; conditions: cited from earlier work
[4] = aqueous solution; cited from earlier work
[5] = target: T1, α-amylase from porcine pancreas; assay: Isothermal titration calorimetry, single injection, GalG2CNP conversion; format: biochemical; conditions: 100 µM inhibitor, 0.95 mM substrate, 37 °C
Experimental: To evaluate the inhibitory strength of 100 µM anthocyanin-3-glucosides and black carrot anthocyanins, GalG2CNP conversion to CNP was monitored by the released heat. According to the previous study, ITC measurements were carried out in a single injection experiment set-up on a MICROCALTM PEAQ-ITC calorimeter (S/N MAL1188053, Malvern Panalytical Almelo, Netherlands). Following an equilibration time of 10 min, 1 µL α-amylase (1 µM in 50 mM MES^+ buffer) was added to 0.95 mM of the substrate with or without 100 µM of the phenolic inhibitor in the cell (Vcell = 0.207 mL). The temperature was maintained at 37 °C and the sample was stirred at 750 rpm throughout. The feedback/gain mode was set to high. The resulting heat profile was transformed and the conversion rate was plotted against the substrate concentration [S] by an origin routine template provided by Malvern® for Origin version 7.

[6] = (i) Kic and Kiu by global fit, [S] 10 µM
[7] = (i) Kic and Kiu by global fit, [S] 100 µM
[8] = (i) Kic and Kiu by global fit, [S] 10^3 µM
[9] = (i) Kic and Kiu by global fit, [S] 10^6 µM
[10] = (i) global fit, mixed inhibition Equation (4), read-out: Kic
[11] = (i) global fit, mixed inhibition Equation (4), read-out: Kiu
[12] = (ii) Kic and Kiu by independent fit, [S] 10 µM
[13] = (ii) Kic and Kiu by independent fit, [S] 100 µM
[14] = (ii) Kic and Kiu by independent fit, [S] 10^3 µM
[15] = (ii) Kic and Kiu by independent fit, [S] 10^6 µM
[16] = (ii) independent Michaelis Menten fit (Equation (6)), calculation by Equation (7), read-out: Kic
[17] = (ii) independent Michaelis Menten fit (Equation (6)), calculation by Equation (8), read-out: Kiu
[18] = (ii) independent fit, Equations (7) and (8)
[19] = from apparent values, inhibitor c 25 µM, read-out: Kic
[20] = from apparent values, inhibitor c 25 µM, read-out: Kiu
[21] = from apparent values, inhibitor c 50 µM, read-out: Kic
[22] = from apparent values, inhibitor c 50 µM, read-out: Kiu
[23] = from apparent values, inhibitor c 12,5 µM, read-out: Kic
[24] = from apparent values, inhibitor c 12,5 µM, read-out: Kiu

IC50 [1, 6]	IC50 [1, 7]	IC50 [1, 8]	Kic/Kiu ([1]; (i) global fit, Equation (4))	Ki [1, 10]	Ki [1, 11]	IC50 [1, 12]	IC50 [1, 13]	IC50 [1, 14]	IC50 [1, 15]	Ki [1, 16]	Ki [1, 17]	Kic/Kiu [1, 18]	Kmapp ([1]; inhibitor c 25 µM)	vmaxapp ([1]; inhibitor c 25 µM)	Kmapp ([1]; inhibitor c 50 µM)	vmaxapp ([1]; inhibitor c 50 µM)	Kmapp ([1]; inhibitor c 12,5 µM)	vmaxapp ([1]; inhibitor c 12,5 µM)	Ki [1, 19]	Structure (SMILES)	other results
83 ± 11 µM	97 ± 15 µM	147 ± 36 µM	0.45 ± 0.08 ***^a	81 ± 10 µM	184 ± 56 µM	137 µM	153 µM	201 µM	228 µM	134 µM	228 µM	0.56 *^a	285 µM	0,74 ± 0,26 µM/min	300 µM	0,69 ± 0,21 µM/min	244 µM	0,79 ± 0,23 µM/min	64 µM	OC[C@H]1O[C@@H](Oc2cc3c(O)cc(O)cc3[o+]c2-c2ccc(O)c(O)c2)[C@H](O)[C@@H](O)[C@@H]1O [Cyd-glc, cyanidin-3-glucoside]	IC50 [1, 9]: 184 ± 56 µM; Ki [1, 20]: 141 µM; Ki [1, 21]: 103 µM; Ki [1, 22]: 250 µM; Ki [1, 23]: 236 µM; Ki [1, 24]: 146 µM; Ki ([1]; mean over inhibitor c 12,5, 25, 50 µM (Supplementary 2), read-out: Kiu mean ± SD): 179 ± 62 µM; IC50 [2]: 180 ± 20 µM; inhibition type [2]: competitive inhibition type; IC50 [3]: 24 ± 3 µM; inhibition type [3]: competitive inhibition type; pKH [4]: 3.02 ± 0.06
64 ± 25 µM	77 ± 25 µM	134 ± 1 µM	0.34 ± 0.24 ^a	62 ± 25 µM	204 ± 68 µM	65 ± 20 µM	83 ± 24 µM	167 ± 20 µM	270 ± 32 µM	63 ± 19 µM	270 ± 33 µM	0.26 ± 0.13 ^a	273 ± 52 µM	0,79 ± 0,09 µM/min	335 ± 129 µM	0,69 ± 0,03 µM/min	247 ± 33 µM	0,84 ± 0,10 µM/min	63 ± 17 µM	OC[C@H]1O[C@@H](Oc2cc3c(O)cc(O)cc3[o+]c2-c2cc(O)c(O)c(O)c2)[C@H](O)[C@@H](O)[C@@H]1O [Dpd-glc, delphinidin-3-glucoside]	Ki [1, 20]: 233 ± 25 µM; Ki [1, 21]: 60 ± 27 µM; Ki [1, 22]: 212 ± 87 µM; Ki [1, 23]: 66 ± 14 µM; Ki [1, 24]: 364 ± 13 µM; Ki ([1]; mean over inhibitor c 12,5, 25, 50 µM (Supplementary 2), read-out: Kic mean ± SD): 63 ± 3 µM; inhibitory strength by ITC (thermogram, Michaelis Menten plot) [5]: Mlv-3-glc > Cyd-3-glc > Dpd-3-glc~Peo-3-glc; pKH [4]: 2.36 ± 0.05
58 ± 15 µM	71 ± 20 µM	117 ± 41 µM	0.39 ± 0.05 ^a	57 ± 15 µM	151 ± 59 µM	71 ± 2 µM	84 ± 7 µM	127 ± 31 µM	158 ± 53 µM	69 ± 1 µM	158 ± 53 µM	0.46 ± 0.13 ^a	258 ± 13 µM	0,58 ± 0,22 µM/min	325 ± 42 µM	0,53 ± 0,23 µM/min	235 ± 2 µM	0,65 ± 0,23 µM/min	62 ± 7 µM	OC[C@H]1O[C@@H](Oc2cc3c(O)cc(O)cc3[o+]c2-c2ccc(O)cc2)[C@H](O)[C@@H](O)[C@@H]1O [Plg-glc, pelargonidin-3-glucoside]	IC50 [1, 9]: 151 ± 59 µM; Ki [1, 20]: 126 ± 30 µM; Ki [1, 21]: 55 ± 19 µM; Ki [1, 22]: 163 ± 64 µM; Ki [1, 23]: 91 ± 22 µM; Ki [1, 24]: 187 ± 64 µM; pKH [4]: 2.98 ± 0.06
